Converted amounts (≈) assume the structure as drawn. Where two headings read alike, the source gives them in different places. Square brackets hold non-standard residues; d marks the D form. Ends that are not written are not given here. Peptide text beside a SMILES is read from it.
Assays:
MDR A. baumannii = assay: microbe, parasite or virus in culture; conditions: for Minimum inhibitory concentrations, MDR A. baumannii: CLSI broth microdilution, CAMHB with 50 mg/L Ca2+, 10 mg/L Mg2+, 5 × 10^5 CFU/ml, 18 h 37 °C, triplicate, strain ATCC BAA-1605
Description: (§1) MDR Pseudomonas aeruginosa (CCARM 2180) was purchased from the Culture Collection of Antimicrobial Resistance Microbes (Seoul, Republic of Korea). MDR Acinetobacter baumannii (ATCC BAA-1605) and MDR Enterococcus faecalis (ATCC 51575) were purchased from the American Type Culture Collection (Manassas, VA, USA). MDR Staphylococcus aureus (KCCM 40510) was purchased from the Korean Culture Center of Microorganisms (Seoul, Republic of Korea). S. aureus (KCTC 1621) was purchased from the Korean Collection for Type Cultures. A. baumannii (KCCM 40203) was purchased from the Korean Culture Center of Microorganisms (Seoul, Republic of Korea).
(§2) To assess antimicrobial activity, the MIC50 and MIC90 were measured using broth microdilution following CLSI guidelines. […] Each experiment was performed in triplicate. Meropenem (Sigma, Darmstadt, Germany) and colistin were used as control antibiotics. Cation-adjusted Mueller–Hinton broth (CAMHB) (Becton, Dickinson and Company, Franklin Lakes, USA) with supplied calcium (50 mg/L) and magnesium (10 mg/L) was used for the CLSI-test condition. Bacteria in midlog phase and peptides were separately diluted in CAMHB. The bacteria and peptide solutions were then mixed in 96-well polyethylene plates (SPL, Gyeonggi-do, Korea) and incubated for 18 h at 37 °C. The final concentration for bacteria was 5 × 10^5 CFU/ml. […] The MIC was defined to be the lowest concentration of peptide without visible turbidity by comparing with control antibiotics with the unaided eye. […] Each experiment was performed in triplicate. MICs in albumin and acetic acid solutions were measured using the same protocol but with 0.2% bovine serum albumin (Bovogen, Keilor, Australia), 0.01% acetic acid (Merck, New Jersey, USA), and CAMHB with both calcium and magnesium. In addition, MICs used in the antibiotic resistance acquisition test, the outer–inner membrane permeation test, and the transmembrane potential test and for FE-SEM were individually determined. The final bacterial concentrations used were as follows: for resistance acquisition, optical density (OD) 0.01; for outer–inner membrane permeability assays (LB), OD 0.1; for the transmembrane potential test, 1 × 10^8 CFU/ml (OD 0.171); […]. Inhibitory activity unidentifiable by direct observation was determined by counting the CFUs. Each experiment was performed at least twice.

MDR E. faecalis = assay: microbe, parasite or virus in culture; conditions: for Minimum inhibitory concentrations, MDR E. faecalis: CLSI broth microdilution, CAMHB with 50 mg/L Ca2+, 10 mg/L Mg2+, 5 × 10^5 CFU/ml, 18 h 37 °C, triplicate, strain ATCC 51575
Description: as §1, §2

MDR P. aeruginosa = assay: microbe, parasite or virus in culture; conditions: for Minimum inhibitory concentrations, MDR P. aeruginosa: CLSI broth microdilution, CAMHB with 50 mg/L Ca2+, 10 mg/L Mg2+, 5 × 10^5 CFU/ml, 18 h 37 °C, no visible turbidity, triplicate, strain CCARM 2180
Description: as §1, §2

MDR S. aureus = assay: microbe, parasite or virus in culture; conditions: for Minimum inhibitory concentrations, MDR S. aureus: CLSI broth microdilution, CAMHB with 50 mg/L Ca2+, 10 mg/L Mg2+, 5 × 10^5 CFU/ml, 18 h 37 °C, triplicate, strain KCCM 40510
Description: as §1, §2

human red blood cells = assay: Hemolytic activity; type: cell-based
Procedure, shortened: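 Peptides (100 μM down to 0.78 μM) were incubated with 4% final human erythrocytes in PBS for 18 h at 37 °C. Supernatant absorbance at 540 nm after centrifugation was scaled to 1% Triton X-100 (100%) and no peptide (0%); melittin served as positive control; triplicate runs.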

[1] = CAMHB plus 0.2% bovine serum albumin and 0.01% acetic acid, values marked * in Table 2

Compound | Minimum inhibitory concentrations, MDR A. baumannii (MDR A. baumannii) | Minimum inhibitory concentrations, MDR E. faecalis (MDR E. faecalis) | Minimum inhibitory concentrations, MDR P. aeruginosa (MDR P. aeruginosa) | Minimum inhibitory concentrations, MDR S. aureus (MDR S. aureus) | Hemolysis percent, 25 μM (human red blood cells; red cells of human, 18 h, 25) | Hemolysis percent, 50 μM (human red blood cells; red cells of human, 18 h, 50) | Hemolysis percent, 100 μM (human red blood cells; red cells of human, 18 h, 100) | actual MIC as weight/volume concentration (MDR A. baumannii; molar MIC converted with the molecular weight (melittin 2.85 kDa, WCopW5 1.47 kDa)) | Hemolysis percent, 25 μM (human red blood cells) | Hemolysis percent, 50 μM (human red blood cells) | Hemolysis percent, 100 μM (human red blood cells) | MIC in 0.2% albumin and 0.01% AcOH added CLSI standard condition, MDR A. baumannii (MDR A. baumannii; [1]) | MIC in 0.2% albumin and 0.01% AcOH added CLSI standard condition, MDR E. faecalis (MDR E. faecalis; [1]) | MIC in 0.2% albumin and 0.01% AcOH added CLSI standard condition, MDR P. aeruginosa (MDR P. aeruginosa; [1]) | MIC in 0.2% albumin and 0.01% AcOH added CLSI standard condition, MDR S. aureus (MDR S. aureus; [1]) | Hemolysis percent, 50 μM (human red blood cells; red cells of human, 18 h, 50 μM)
CC(C)C[C@@H](NC(=O)[C@H](N)Cc1c[nH]c2ccccc12)C(=O)N[C@H](CC(C)C)C(=O)N[C@H](Cc1c[nH]c2ccccc12)C(=O)N[C@H](C)C(=O)NCC(=O)N[C@H](C)C(=O)N[C@H](CCCNC(=N)N)C(=O)N[C@H](CCCCN)C(=O)N[C@H](CCCCN)C(=O)N[C@H](CCCNC(=N)N)C(N)=O [WCopW21] (H-[dW][dL][dL][dW][dA]G[dA][dR][dK][dK][dR]-NH2) | > 20 µM | > 20 µM | > 20 µM | > 20 µM | 0.60% | 1.03% | 1.74% |  |  |  |  |  |  |  |  | 
CC[C@@H](C)[C@@H](NC(=O)[C@@H](Cc1c[nH]c2ccccc12)NC(=O)[C@@H](CC(C)C)NC(=O)[C@@H](CC(C)C)NC(=O)[C@H](N)Cc1c[nH]c2ccccc12)C(=O)NCC(=O)N[C@H](CC(C)C)C(=O)N[C@H](CCCNC(=N)N)C(=O)N[C@H](CCCCN)C(=O)N[C@H](CCCCN)C(=O)N[C@H](CCCNC(=N)N)C(N)=O [WCopW5] (H-[dW][dL][dL][dW][dI]G[dL][dR][dK][dK][dR]-NH2) | 1.25 µM (≈ 1.83 µg/mL) | 2.5 µM (≈ 3.67 µg/mL) | 10 µM (≈ 14.7 µg/mL) | 1.25 µM (≈ 1.83 µg/mL) | 2.99% | 7.77% | 11.60% | 1.84 µg/mL |  |  |  |  |  |  |  | 
CC[C@@H](C)[C@@H](NC(=O)[C@@H](Cc1c[nH]c2ccccc12)NC(=O)[C@@H](CC(C)C)NC(=O)[C@H](N)CC(C)C)C(=O)NCC(=O)N[C@H](CC(C)C)C(=O)N[C@H](CCCNC(=N)N)C(=O)N[C@H](CCCCN)C(=O)N[C@H](CCCCN)C(=O)N[C@H](CCCNC(=N)N)C(N)=O [WCopW13] (H-[dL][dL][dW][dI]G[dL][dR][dK][dK][dR]-NH2) | 5 µM (≈ 6.41 µg/mL) | > 20 µM | > 20 µM | > 20 µM | 1.00% | 1.13% | 1.21% |  |  |  |  |  |  |  |  | 
NH2 wF l l w i g l r k k r CONH2 [WCopW18, WCopW analog] | 1.25 µM | 2.5 µM | 5 µM | 1.25 µM |  |  |  |  | 1.89% | 4.52% | 6.74% |  |  |  |  | 
WLLLLLRRR-NH2 [AcWL-1] | 2.5 µM | 10 µM | > 20 µM | 10 µM | 11.89 ±1.24% |  | 36.35 ±3.00% |  |  |  |  | 1.25 µM | 5 µM | > 20 µM | 5 µM | 20.52 ±1.25%
CC[C@@H](C)[C@@H](NC(=O)[C@@H](Cc1c[nH]c2ccccc12)NC(=O)[C@@H](CC(C)C)NC(=O)[C@@H](CC(C)C)NC(=O)[C@H](N)Cc1c[nH]c2ccccc12)C(=O)NCC(=O)N[C@H](CC(C)C)C(=O)N[C@H](CCCNC(=N)N)C(=O)N[C@H](CCCCN)C(=O)N[C@H](CCCCN)C(N)=O [WCopW8] (H-[dW][dL][dL][dW][dI]G[dL][dR][dK][dK]-NH2) | 5 µM (≈ 6.56 µg/mL) | 5 µM (≈ 6.56 µg/mL) | > 20 µM | 2.5 µM (≈ 3.28 µg/mL) | 3.85% | 8.51% | 15.04% |  |  |  |  |  |  |  |  | 

From PMC9643456, “Matching amino acids membrane preference profile to improve activity of antimicrobial peptides” (Communications Biology, 2022)
